“Also recorded” adds a separate entry of the source. Counter-ions that a name gives are not always drawn. Like-named read-outs stand apart in the source and are kept apart here.
What was measured:
[1] = biological target: T1, full-length tau (T40; htau40 isoform) / truncated tau (12-kDa fragment) in 3T6 fibroblast cells (Homo sapiens, UniProt P10636); assay: cellular tau aggregation inhibition assay (truncated 12-kDa tau / full-length T40 band ratio on immunoblots); assay type: cell-based; conditions: for activity at 2 µM / activity at 20 µM: single concentration test, vs untreated cells, ~1.0 negative, <0.5 positive inhibitor, read-out: Truncated tau/T40 ratio (n = 3); for activity at 20 µM: tested at 20 μM
T1 construct: fibroblast cells (3T6) express full-length tau; PHF-core tau fragment (12-kDa fragment); expressed in transfected cells; host or cells: 3T6 fibroblast cells
Method: A cell-based tau aggregation assay was performed as described previously. The process is described in more detail in WO 02/055720. In essence, fibroblast cells (3T6) express full-length tau (“T40”; the htau40 isoform) under control of an inducible promotor, and low constitutive levels of the PHF-core tau fragment (12-kDa fragment). When T40 expression is induced, it undergoes aggregation-dependent truncation within the cell, N-terminally at approximately amino acid residue 295 and C-terminally at approximately residue 390, thereby producing higher levels of the 12-kDa PHF-core domain fragment. Production of the 12-kDa fragment can be blocked in a dose-dependent manner by tau-aggregation inhibitors. Indeed, the quantitation of inhibitory activity of compounds with respect to proteolytic generation of the 12-kDa fragment within cells can be described entirely in terms of the same parameters which describe inhibition of tau-tau binding in vitro. That is, the extent of proteolytic generation of the 12-kDa fragment within cells is determined entirely by the extent to tau-tau binding through the repeat domain.
[…] MTC was included as a reference tau aggregation inhibitor. For single concentration tests. The ratio of the quantity of both of the protein bands at different concentrations of TAI is measured, to correct for the level of expression of full-length tau and for cell density, particularly at high concentration of TAIs.
The inhibitory ratio (IR) is calculated by the equation:
Where IR^x=inhibitory ratio for compound at x mM; S=signal on immunoblot (mean) for truncated tau (trunc. tau) or full-length tau (full tau) bands for compound at 0 or x mM. A ratio of 1.0 indicates no effect, whereas values decreasing from 1.0 indicate increasing inhibitory action. A curve is generated for different concentrations and the EC50 value for the TAI is defined as the concentration at which the ratio of truncated tau: full-length tau is 50% of that ratio measured in the absence of TAI; this is determined graphically.
The concentration at which there is 50% inhibition of the 12-kDa band relative to T40 (referred to as the EC50 value) was calculated from a graph of the protein band ratios relative to those observed in untreated cells.

[2] = toxicity in cells (lactate dehydrogenase assay, 24 hrs); assay type: cell-based; conditions: mouse, 3t6 fibroblasts; concentration at which 50% of cells are killed; 24 hrs exposure; read-out: LD50
Method: Toxicity of the compounds described herein was assessed using the fibroblast cells used in the cell-based assay described above to assess EC50. Toxicity was measured by cell numbers after 24 hrs exposure to the compound using a lactate dehydrogenase assay kit TOX-7 (Sigma Biosciences) according to the manufacturer's instructions after lysis of remaining cells. Alternatively, a kit from Promega UK (CytoTox 96) was used, again according to the manufacturer's instructions. LD50 is determined as the concentration of compound at which 50% of cells are killed.

dGAE = biological target: T2, dGAE (Homo sapiens, UniProt P10636); assay: solution-phase sandwich ELISA of dGAE assembly (scAb epitope occlusion); assay type: biochemical; conditions: 100 μM dGAE, 500 μM inhibitor, 24 h assembly; for assembly-dependent occlusion of epitopes: CA4, CE2, 1G2 and 1D12 epitopes; for 1G2 epitope availability / immunoreactivity: scAb 1G2
T2 construct: HMT or Compound 9 added
Method: Recombinant dGAE was produced in a bacterial expression system and assembled in the presence of 10 mM DTT by incubation at 37° C. with agitation for 24 h, as described previously. For testing the pharmacological activity, assembly reactions were performed with 100 μM dGAE and 500 μM tau aggregation inhibitor (Compound 9 or HMT) in Protein Lobind tubes (Eppendorf). Compound 9 was dissolved in DMSO (final 0.5%) and HMT in 10 mM phosphate buffer (PB) supplemented with 10 mM DTT. Control tubes with dGAE+DTT in PB and dGAE+DTT in 0.5% DMSO were also set up to allow for comparison of the extent of aggregation. Following a 24 h assembly reaction, the contents from each tube were mixed by pipetting and samples removed for the immunodetection of exposed epitopes using a solution-phase sandwich ELISA.
Ninety-six well Nunc Maxisorp plates were pre-coated with mAb 423 (10 μg/ml), which specifically recognises tau that is C-terminally truncated at Glu391 in the Pronase-resistant PHF core, washed three times with PBS containing 0.1% Tween 20 (PBST) and then blocked with 2% dried milk (Marvel) in PBS. Doubling dilutions of dGAE assembly samples were added from starting concentrations of 10 μg/ml in PBS and incubated for 1 h at 37° C. Bound tau was then detected using scAbs (10 μg/ml) and incubated for 1 h at 37° C. Anti-human C kappa HRP-conjugated secondary antibody was diluted 1:1,000 in 2% dried milk in PBS and incubated for 1 h at 37° C. Pierce 1-Step Ultra TMB-ELISA Substrate Solution was used to develop the reaction which was subsequently stopped with the addition of 1 M H2SO4. Absorbance was measured at 450 nm.

[3] = biological target: T3, truncated tau (residues 297-390; dGA) / dGAE (residues 297-391), tau-tau binding (Homo sapiens, UniProt P10636); assay: in vitro cell-free tau-tau binding assay (B50); conditions: concentration required to inhibit tau-tau binding by 50%
T3 construct: truncated tau (residues 297-390; dGA); another truncated tau species (residues 297-391; dGAE)
Source text: This is described in detail in WO 96/30766 and in [25]. Briefly, a fragment of tau corresponding to the core repeat domain, which has been adsorbed to a solid-phase substrate, is able to capture soluble, full-length tau and bind tau with high affinity. This association confers stability against proteolytic digestion of the aggregated tau molecules. The process is self-propagating and can be blocked selectively by prototype pharmaceutical agents.
More specifically, truncated tau (residues 297-390; dGA) diluted in carbonate buffer (pH 9.6) was bound to the assay plate, and another truncated tau species (residues 297-391; dGAE) was added in the aqueous phase. The aqueous phase binding buffer contained 0.05% Tween-20 and 1% gelatine in phosphate-buffered saline (pH 7.4). Bound dGAE was detected using mAb 423 that recognises a Glu-391 dependent epitope that is absent from the solid-phase dGA.
The concentration of compound required to inhibit the tau-tau binding by 50% is referred to as the B50 value.

[4] = biological target: T1, full-length tau (T40; htau40 isoform) / truncated tau (12-kDa fragment) in 3T6 fibroblast cells; conditions: previously reported [4, 13]; read-out: EC50 in the cell assay; cited from earlier work
[5] = both AD and frontotemporal dementia; cited from earlier work
[6] = full assay, concentration at which truncated tau:full-length tau ratio is 50% of that without TAI, mean for replicates, NE = no effect, read-out: EC50

T3 sequence (P10636 614-708): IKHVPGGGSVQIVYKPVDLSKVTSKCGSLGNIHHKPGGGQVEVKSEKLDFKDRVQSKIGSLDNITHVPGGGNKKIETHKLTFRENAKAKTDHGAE
T2 sequence (P10636 614-708): as above
T1 sequence (P10636 1-441 isoform P10636-8): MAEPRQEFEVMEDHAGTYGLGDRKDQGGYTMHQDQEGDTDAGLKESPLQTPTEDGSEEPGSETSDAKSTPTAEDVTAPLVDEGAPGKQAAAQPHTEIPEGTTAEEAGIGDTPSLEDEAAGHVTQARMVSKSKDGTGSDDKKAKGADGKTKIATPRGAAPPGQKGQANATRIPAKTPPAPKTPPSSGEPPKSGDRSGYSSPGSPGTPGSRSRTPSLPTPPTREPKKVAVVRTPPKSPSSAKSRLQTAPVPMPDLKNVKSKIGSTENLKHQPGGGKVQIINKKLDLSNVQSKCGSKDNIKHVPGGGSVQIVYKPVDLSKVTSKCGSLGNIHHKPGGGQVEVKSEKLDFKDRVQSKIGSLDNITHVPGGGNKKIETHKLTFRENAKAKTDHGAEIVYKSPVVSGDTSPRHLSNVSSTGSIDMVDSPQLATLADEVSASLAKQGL

Row | Structure (SMILES) | activity at 2 µM ([1]; >2.0 aggregation enhanced) [%] | CC50 at 24 h [2] [µM] | further results
1 | CS(=O)(=O)Nc1nc(C(=O)NCc2ccc[nH]2)cs1 [Compound 1] | 501 ± 40.4 | 247 ± 16 | –
2 | Cn1cccc1CNC(=O)c1csc(NS(C)(=O)=O)n1 [Compound 2] | 86.4 ± 5.9 | 253 ± 40 | –
3 | CS(=O)(=O)Nc1nc(C(=O)NCc2cc3ccccc3[nH]2)cs1 [Compound 3] | 228 ± 44.9 | 212 ± 14 | –
4 | CS(=O)(=O)Nc1nc(C(=O)NCc2nc3cc(Cl)ccc3[nH]2)cs1 [Compound 4] | 480 ± 114 | 264 ± 27 | –
5 | CS(=O)(=O)Nc1nc(C(=O)NCc2cc(-c3ccccc3)[nH]n2)cs1 [Compound 5] | 72.7 ± 11.3 | 252 ± 23 | –
6 | CC(C)(C)CCNC(=O)c1csc(NS(C)(=O)=O)n1 [Compound 6] | 88.8 ± 5.7 | 217 ± 2.7 | –
7 | CN(c1nc(C(=O)NCc2ccc[nH]2)cs1)S(C)(=O)=O [Compound 7] | 44.4 ± 20.8 | 216 ± 46 | –
8 | CN(c1nc(C(=O)NCc2cccn2C)cs1)S(C)(=O)=O [Compound 8] | 7.8 ± 1.4 | 204 ± 39 | –
9 | CN(c1nc(C(=O)NCc2cc(-c3ccccc3)[nH]n2)cs1)S(C)(=O)=O [Compound 9] | – | 80.1 ± 45 | EC50 [1, 6]: 4.82 µM; activity in cell-based aggregation assay (in words) ([1]; qualitative statement): lower potency; activity at 2 µM ([1]; tested at 2 μM): 26.6 ± 6.1%; EC50 ([1]; single experiment, FIG. 2, read-out: EC50 (50% inhibition of the lower 12-kDa band)): 3.65 µM; assembly-dependent occlusion of epitopes (dGAE): Epitope exposure was less complete; 1G2 epitope availability / immunoreactivity (dGAE): comparable to HMT; exposure of the CA4 and 1D12 epitopes (dGAE; scAbs CA4 and 1D12): only partial exposure; IC50 [3]: > 500 µM
10 | CN(c1nc(C(=O)NCCC(C)(C)C)cs1)S(C)(=O)=O [Compound 10] | 49.6 ± 9.6 | 191 ± 26 | EC50 [1, 6]: 29 µM
11 | Cn1cccc1CNC(=O)c1csc(NS(=O)(=O)CCO)n1 [Compound 11] | 91.7 ± 18.8 | 222 ± 35 | –
12 | O=C(NCc1nc2cc(Cl)ccc2[nH]1)c1csc(NS(=O)(=O)CCO)n1 [Compound 12] | – | 197 ± 11.9 | activity at 20 µM [1]: 101 ± 8.8%
13 | O=C(NCc1cc(-c2ccccc2)[nH]n1)c1csc(NS(=O)(=O)CCO)n1 [Compound 13] | – | 197 ± 8.1 | activity at 20 µM [1]: 112 ± 16.2%
14 | CC(C)(C)CCNC(=O)c1csc(NS(=O)(=O)CCO)n1 [Compound 14] | – | 263 ± 39 | EC50 [1, 6]: 3.7 µM; activity at 2 µM ([1]; tested at 2 μM): 38.1 ± 14.6%
15 | O=C(NCc1ccc[nH]1)c1csc(NS(=O)(=O)CF)n1 [Compound 15] | 120 ± 25.7 | 221 ± 35 | –
16 | Cn1cccc1CNC(=O)c1csc(NS(=O)(=O)CF)n1 [Compound 16] | – | 236 ± 25 | activity at 20 µM [1]: 62.8 ± 5.1%
17 | O=C(NCc1cc2ccccc2[nH]1)c1csc(NS(=O)(=O)CF)n1 [Compound 17] | – | 228 ± 40 | activity at 2 µM ([1]; tested at 2 μM): 53.2 ± 15%
18 | O=C(NCc1nc2ccc(Cl)cc2[nH]1)c1csc(NS(=O)(=O)CF)n1 [Compound 18] | 14.1 ± 3.9 | 225 ± 38 | –
19 | O=C(NCc1cc(-c2ccccc2)[nH]n1)c1csc(NS(=O)(=O)CF)n1 [Compound 19] | 197 ± 94.6 | 231 ± 38 | –
20 | CC(C)(C)CCNC(=O)c1csc(NS(=O)(=O)CF)n1 [Compound 20] | 80.3 ± 42.4 | 186 ± 13 | –
21 | CNS(=O)(=O)Nc1nc(C(=O)NCc2cc3ccccc3[nH]2)cs1 [Compound 21] | 217 ± 85.6 | 227 ± 30 | –
22 | CNS(=O)(=O)Nc1nc(C(=O)NCc2nc3cc(Cl)ccc3[nH]2)cs1 [Compound 22] | 136 ± 59.1 | 228 ± 36 | –
23 | CNS(=O)(=O)Nc1nc(C(=O)NCc2cc(-c3ccccc3)[nH]n2)cs1 [Compound 23] | 98.5 ± 10.1 | 226 ± 40 | –
24 | CNS(=O)(=O)Nc1nc(C(=O)NCCC(C)(C)C)cs1 [Compound 24] | 349 ± 106 | 235 ± 44 | –
25 | O=C(NCc1nc2cc(Cl)ccc2[nH]1)c1csc(NS(=O)(=O)c2c[nH]c3ccccc23)n1 [Compound 25] | – | 202 ± 9.3 | activity at 20 µM [1]: 91.1 ± 10%; IC50 [3]: 612 µM
26 | O=C(NCc1cc(-c2ccccc2)[nH]n1)c1csc(NS(=O)(=O)c2c[nH]c3ccccc23)n1 [Compound 26] | – | 188 ± 11 | activity at 20 µM [1]: 132 ± 8.4%; IC50 [3]: 616 µM
27 | CN(C)c1ccc2c(c1)Sc1cc(N(C)C)ccc1N2 [HMT, Hydromethylthionine, reference compound] | – | – | assembly-dependent occlusion of epitopes (dGAE): assembly-dependent occlusion of these epitopes did not occur; 1G2 epitope availability / immunoreactivity (dGAE): remained partially occluded; CE2 epitope availability / immunoreactivity (dGAE; scAb CE2): became more available in the HMT-treated sample than in the soluble pre-assembly sample; also recorded: prevented the conformational changes in the CE2 epitope responsible for early loss of immunoreactivity; EC50 [4]: 0.6 µM
28 | CN(C)c1ccc2c(c1)Sc1cc(N(C)C)ccc1N2 [HMTM, Hydromethylthionine mesylate] | – | – | pharmacological activity on clinical decline and brain atrophy [5]: exposure-dependent pharmacological activity on clinical decline and brain atrophy
29 | CN(C)c1ccc2nc3ccc(N(C)C)cc3[s+]c2c1.[Cl-] [MT, reference compound] | – | – | tau aggregation level, % of that measured in its absence ([1]; MT at 1 μM): 9.6%

Reference: patent publication US20260327217A1, “THIAZOLE DERIVATIVES AS TAU AGGREGATION INHIBITORS” (WisTa Laboratories Ltd., priority 2022, published 2026)
